Experimental data: patent US20090238766A1, “BIOLUMINESCENT CONSTRUCT” (ABBOTT LABORATORIES, priority 2008, published 2009)

System: caspase-3/7
Assay: In vivo bioluminescent imaging of VivoGlo Caspase-3/7 substrate and caspase-3/7 inactive substrate(s)
Conditions: mice bearing tumors stably expressing luciferase, treated with apoptosis-inducing cytotoxic therapy (e.g. docetaxel); substrate 62.5 mg/mL intraperitoneally; detected 5-30 minutes post injection
Description: In luciferase-expressing cells undergoing apoptosis, caspase-3/7 will cleave the DEVD peptide from the VivoGlo™ Caspase-3/7 substrate, allowing it to be a substrate for luciferase photon production. […] The photon emission will be detected with a photodetector device at timepoints from 5-30 minutes post injection and quantified.

## Z-DEVD-aminoluciferin [VivoGlo Caspase-3/7]
  bioluminescent signal (photon emission): significant bioluminescent signal
